According to US12595269B2, “Morpholine-like monoamine releasers” (Solvonis Therapeutics Ireland Holdings Limited, priority 2022, dated 2026):
Converted amounts (≈) assume the structure as drawn.

Experiments:
DAT (dopamine release) = target: T1, DAT (dopamine release) (Rattus norvegicus, UniProt P23977); assay: Dopamine release filtration assay in rat striatal synaptosomes; type: cell-based; conditions: % of release by 50 μM MDMA, read-out: DAT release pEC50 (converted)
T1 construct: added to the tube containing the crude striatal synaptosomes preparation; from tissue; host or cells: rat striatum, crude synaptosomes
T1 sequence (P23977 whole entry): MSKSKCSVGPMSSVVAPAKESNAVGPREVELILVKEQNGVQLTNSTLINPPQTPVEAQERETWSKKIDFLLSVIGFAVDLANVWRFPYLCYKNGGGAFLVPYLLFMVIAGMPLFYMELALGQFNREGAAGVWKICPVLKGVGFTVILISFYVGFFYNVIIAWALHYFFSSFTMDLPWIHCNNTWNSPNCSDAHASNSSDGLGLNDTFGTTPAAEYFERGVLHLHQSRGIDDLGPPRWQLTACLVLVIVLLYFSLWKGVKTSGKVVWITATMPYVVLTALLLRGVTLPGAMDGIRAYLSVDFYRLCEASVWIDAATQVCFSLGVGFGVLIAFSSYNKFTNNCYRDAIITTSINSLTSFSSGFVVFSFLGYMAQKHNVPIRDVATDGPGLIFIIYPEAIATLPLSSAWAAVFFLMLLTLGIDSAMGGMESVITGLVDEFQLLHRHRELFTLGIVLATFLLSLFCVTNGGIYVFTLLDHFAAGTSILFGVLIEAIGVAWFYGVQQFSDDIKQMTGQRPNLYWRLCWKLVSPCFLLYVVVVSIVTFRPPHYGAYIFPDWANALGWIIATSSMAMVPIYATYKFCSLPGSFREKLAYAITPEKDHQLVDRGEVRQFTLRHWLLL
Procedure: Methods and Procedure—Release: The potency of the disclosed compounds for stimulating dopamine (DA) release was measured by an endpoint release filtration assay in a 96-well format using rat synaptosomes, essentially as described by Sandtner et al., Mol. Pharmacol., 2016; 89(1):165-75, and Baumann et al., Neuropsychopharmacol., 2013; 38:552-562, with some variations.
One male rat was sacrificed and striatum/cortex regions were dissected over ice. The striatum portions were weighed and put in a glass tube for homogenization, containing ice-cold 0.32 M sucrose (dilution 1:24 w/v), while the frontal cortex tissue was diluted in ice-cold 0.32 M sucrose, 1:20 w/v. Tissues were homogenized and centrifuged for 10 mins at 1000×g. The two supernatants from striatum and cortex (crude synaptosomes) were retained on ice until use.
Test compounds were then serially diluted 1:4 in neat DMSO as concentration-response curves (CRC) of 11 points. […]
^3H-Dopamine was added to the tube containing the crude striatal synaptosomes preparation, diluted 1:20 (v/v) in complete Krebs-phosphate buffer, and was incubated at RT and gently mixed for 60 minutes. […] The retained radioactivity was counted in a scintillation counter after the addition of 50 μL/well Microscint-20.
The raw data (cpm) from residual radioactivity onto the filter were elaborated for the determination of pEC50/EC50 values. Specifically, the compound effect was expressed as the percent of maximal release obtained with 50 μM MDMA (100% release) in comparison to vehicle (0.5% DMSO, 0% release). […] In each plate, for both 0% and 100% of release, the signal window is monitored performing Z′ calculations using raw data of four replicates.

[1] = Solubility in PBS pH 7.4 by HPLC-UV; type: physicochemical; conditions: PBS buffer, aqueous buffer, kinetic from dmso stock; PBS pH 7.4, about 2% DMSO, 120 minutes at room temperature
Procedure: Methods and Procedure: This study was designed in compliance with previously described procedures to assure data integrity and adherence to GLP principles. Control compounds included ibuprofen as a reference for high solubility and progesterone as a reference for low solubility. Stock solutions of compounds described herein (20 mM) were prepared in DMSO, on the same day of the experiment when feasible.
These solutions were compared with an external standard solution of known concentration via HPLC-UV To prepare the standard, 4 μL from a 20 mM compound stock solution was added to DMSO in a vial/well, and mixed with shaking at room temperature for 10 minutes. […]
Concentrations were determined by comparing UV absorbance of the test solution and of the known standard solution following HPLC separation using a generic fast gradient method employing a DAD detector and UV detection at 230 and 254 nm. […] The solubility of each compound was expressed as the ratio of compound amount in the sample test solution to the amount of compound in the standard solution, calculated from the equation “solubility of sample=peak area of sample/peak area of standard×concentration of standard.”

SMILES: Clc1ccc([C@]23CN[C@H](CO2)C3)cc1Cl (single isomer, unassigned) [516A]
- EC50 (DAT (dopamine release)): 1100 nM

SMILES: Clc1ccc([C@@]23CN[C@@H](CO2)C3)cc1Cl (single isomer, unassigned) [518A]
- EC50 (DAT (dopamine release)): 33.1 nM

SMILES: Clc1ccc(C23CNC(CO2)C3)cc1Cl (centres unmarked) [522A, 1-(3,4-dichlorophenyl)-2-oxa-5-azabicyclo[2.2.1]heptane]
- solubility at 120 min [1]: 384 µM (≈ 93.6 µg/mL)
- EC50 (DAT (dopamine release)): 61.7 nM

SMILES: CNC(C)Cc1ccc2c(c1)OCO2 (centres unmarked) [MDMA, reference compound]
- solubility at 120 min [1]: 386 µM (≈ 74.6 µg/mL)
